# In patent US10159655B2, “Agent for inhibiting odor of pyrazine derivatives” (Kao Corporation, priority 2012, dated 2018):
# Molecular target: T1, olfactory receptor OR5K1 (Homo sapiens, UniProt Q8NHB7)
# T1 construct: expressed in transfected cells; host or cells: HEK293
# T1 sequence (Q8NHB7 1-308): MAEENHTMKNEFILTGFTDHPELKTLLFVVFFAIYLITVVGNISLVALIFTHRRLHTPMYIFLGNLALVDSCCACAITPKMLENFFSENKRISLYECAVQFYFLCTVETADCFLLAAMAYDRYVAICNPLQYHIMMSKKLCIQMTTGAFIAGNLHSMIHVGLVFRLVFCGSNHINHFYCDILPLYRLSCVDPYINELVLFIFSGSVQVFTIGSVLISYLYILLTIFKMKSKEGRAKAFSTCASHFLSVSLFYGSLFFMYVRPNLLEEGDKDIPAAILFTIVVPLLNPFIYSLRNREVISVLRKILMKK
# Test: Luciferase reporter gene assay: response of olfactory receptor OR5K1 expressed in HEK293 cells to pyrazine compounds
# Format: cell-based
# Settings: 0, 3, 10, 30, 100, 300 and 1000 μM; HEK293 cells with RTP1S variant; FIG. 2
# Description: Human olfactory receptors were cloned based on sequence information registered in GenBank by PCR using human genomic DNA female (G1521: Promega Corporation) as a template. Each gene amplified by PCR was inserted into a pENTR vector (Invitrogen Inc.) in accordance with the manual and was recombined into the NotI and AscI site located downstream of a Flag-Rho tag sequence in a pME18S vector using the NotI and AscI site present in the pENTR vector.
# An RTP1S variant gene (SEQ ID NO: 3) encoding an RTP1S variant (SEQ ID NO: 4) was inserted into the EcoRI and XhoI site of a pME18S vector.
# HEK293 cells expressing 373 types of human olfactory receptors were produced. A reaction solution having a composition shown in Table 1 was prepared and left to stand in a clean bench for 15 min and then was dispensed in each well of a 96-well plate (Becton, Dickinson and Company). Subsequently, HEK293 cells (100 μL, 3×10^5 cells/cm^2) were seeded in each well and cultured in an incubator at 37° C. and 5% CO2 for 24 hr.
# An olfactory receptor expressed in HEK293 cells couples with endogenous Gas in the cells to activate adenylate cyclase and thereby increases the amount of intracellular cAMP. In this study, the response of a pyrazine derivative was measured by luciferase reporter gene assay which monitors an increase in amount of intracellular cAMP as the luminescence value derived from a firefly luciferase gene (fluc2P-CRE-hygro). A Renilla luciferase gene was fused downstream of a CMV promoter (hRluc-CMV) and was also introduced to HEK293 cells as an internal standard to correct errors in transgenic efficiency and number of cells.
# The culture medium was removed from the culture produced in the above 3), and 75 μL of a solution prepared with a CD293 medium (Invitrogen Inc.) so as to contain a pyrazine derivative (1 mM, 2,6-dimethylpyrazine) was added thereto. The cells were cultured in a CO2 incubator for 2.5 hr to sufficiently express the luciferase gene in the cells. The luciferase activity was measured with a Dual-Glo™ luciferase assay system (Promega Corporation) in accordance with the operating manual of the system. The fold increases were calculated by dividing the luminescence value derived from firefly luciferase induced by stimulation with a pyrazine derivative at each concentration by the luminescence value in cells not stimulated with the pyrazine derivative and were used as an index of response strength.
# Olfactory receptor OR5K1 (SEQ ID NO: 2) was expressed in HEK293 cells together with an RTP1S variant (SEQ ID NO: 4) by the same procedure as in Example 1, and the dependency of the response on the concentration (0, 3, 10, 30, 100, 300, and 1000 μM) of various pyrazine compounds was investigated. The pyrazine compounds used in this Example were pyrazine and pyrazine derivatives selected from the group consisting of 2-methylpyrazine, 2,3-dimethylpyrazine, 2,5-dimethylpyrazine, 2,3,5-trimethylpyrazine, 2,3,5,6-tetramethylpyrazine, and 2-ethylpyrazine.
row,dependency of the response of OR5K1 on the concentration of pyrazine compounds,SMILES
1,dose-dependently responded,"Cc1cncc(C)n1 [2,6-dimethylpyrazine]"
2,dose-dependently responded,"Cc1nc(C)c(C)nc1C [2,3,5,6-tetramethylpyrazine]"
3,did not respond,c1cnccn1 [pyrazine]
4,dose-dependently responded,Cc1cnccn1 [2-methylpyrazine]
5,dose-dependently responded,"Cc1cnc(C)c(C)n1 [2,3,5-trimethylpyrazine]"
6,dose-dependently responded,"Cc1cnc(C)cn1 [2,5-dimethylpyrazine]"

row,SMILES,dependency of the response of OR5K1 on the concentration of pyrazine compounds
1,"Cc1nccnc1C [2,3-dimethylpyrazine]",dose-dependently responded
2,CCc1cnccn1 [2-ethylpyrazine],dose-dependently responded

# Same assay, conditions: 1 mM; 373 types of human olfactory receptors screened in HEK293 cells; FIG. 1
row,"response of olfactory receptor to 2,6-dimethylpyrazine (fold increase of luciferase luminescence)",SMILES
1,responded,"Cc1cncc(C)n1 [2,6-dimethylpyrazine]"
